Patent publication US20240368163A1, “COMPOUNDS AND METHODS FOR MODULATING SPLICING” (REMIX THERAPEUTICS INC., priority 2021, published 2024)

Assays:
[1] = Transwell assay for membrane efflux and permeability; assay type: in vitro ADME, Canine; settings: dog; MDCK-BCRP or MDCKII-MDR1 transwell, test compound 1 μM, 2 hours at 37° C.
From the text: Compounds described herein were screened for cell membrane permeability and efflux in a transwell assay using Madin-Darby Canine Kidney (MDCK) cells expressing Breast Cancer Resistance Protein (BCRP) or subclone MDCKII cells expressing Multidrug Resistance Protein 1 (MDR1).
MDCK-BCRP or MDCKII-MDR1 Cells: The Netherlands Cancer Institute, High Glucose Dulbecco's Modified Eagle's Medium (DMEM): Gibco/Thermo Fisher Scientific, Fetal Bovine Serum (FBS): Coming, Hank's Balanced Salt Solution (HBSS) and Trypsin/EDTA: Gibco/Thermo Fisher Scientific, HTS Transwell-96 Well Permeable Supports: Coming Corporation, Millicell Epithelial Volt-Ohm: Millipore, Cellometer® Vision: Nexcelom Bioscience LLC, Infinite 200 PRO microplate reader: Tecan, MTS2/4 orbital shaker: IKA Labortechnik, HEPES/Penicillin/Streptomycin: Solarbio.
MDCK-BCRP or MDCKII-MDR1 cells were seeded to each of the wells of the transwell plate at a density of 1.6×10^6 cells/mL and the plate was incubated for 4-8 days with medium changes every two days. To perform the drug transport assay, cell monolayers were first washed three times with pre-warmed HBSS and then incubated with gentle shaking (150 rpm) for 30 min at 37° C. Stock solutions of test compounds (e.g., exemplary compounds of Formulas (I), (II), and (III)) and control compounds (e.g., metoprolol, prazosin, and/or imatinib) were prepared in DMSO and adjusted to a working solution using HBSS. The final concentration of test compounds was 1 μM with DMSO; 0.5%. The plates were incubated at 37° C. for 2 hours.

HTT [2] = test: HiBiT protein abundance assay, HTT; assay type: cell-based, human; settings: Table 13A, modified K562 cells
In short: (§1)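 HiBiT-tagged endogenous targets in K562 cells treated 24 h at 37° C. with 10-point 3-fold dilutions (top 10 μM, DMSO ≤0.25%). Luminescence read after lytic LgBiT detection; response normalised to unmodified-cell and DMSO controls, IC50 interpolated at 50% from four-parameter logistic fit.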

Target C [3] = test: HiBiT protein abundance assay, Target C; assay type: cell-based, human; settings: Table 13A, modified K562 cells
In short: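 HiBiT knock-in K562-derived cells seeded at 10000/well and treated with 10-point 3-fold dilutions (top final 10 μM, ≤0.25% DMSO) for 24 h at 37 °C. Lytic HiBiT luminescence normalised to unmodified-cell and DMSO controls; IC50 from 4-parameter fit at 50% abundance.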

MYB [4] = test: HiBiT protein abundance assay, MYB; assay type: cell-based, human; settings: Table 13A, modified K562 cells
In short: as §1

SMN2 = test: Splicing RT-qPCR panel, SMN2 canonical junction (CJ) mRNA; assay type: cell-based, human; settings: Homo sapiens, RT-qPCR panel, canonical junction mRNA; compound concentration having 50% response in CJ decrease; read-out: SMN2 IC50 (decrease in CJ mRNA levels)
In short: (§2)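 Cells: A673 (DMEM/10% FBS) or K562 (IMDM/10% FBS). Dose: 11-pt 3-fold, top 10 uM final, ≤0.25% DMSO, 24 h, 37 °C. Readout: RT-qPCR of CJ/AJ exon junctions, ΔΔCt vs housekeeper and DMSO, RQ to % response.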

HTT [5] = test: Splicing RT-qPCR assay, HTT mRNA canonical junction (CJ) and alternative junction (AJ); assay type: cell-based, human; settings: Homo sapiens; for AC50: increase in AJ mRNA
In short: as §2

Target C [6] = test: Splicing RT-qPCR panel, Target C canonical junction (CJ) mRNA; assay type: cell-based, human; settings: Homo sapiens, RT-qPCR panel, canonical junction mRNA; compound concentration having 50% response in CJ decrease; read-out: Target C IC50 (decrease in CJ mRNA levels)
In short: as §2

MYB [7] = test: Splicing RT-qPCR assay, MYB mRNA canonical junction (CJ) and alternative junction (AJ); assay type: cell-based, human; settings: Homo sapiens; for AC50: increase in AJ mRNA
In short: as §2

[8] = 24 h, decrease in CJ mRNA, A673 or K562 cells, 24 hours treatment, RT-qPCR, read-out: HTT CJ IC50
[9] = 24 h, A673 or K562 cells, 24 hours treatment, RT-qPCR
[10] = RT-qPCR panel, canonical junction mRNA, compound concentration having 50% response in CJ decrease, read-out: HTT IC50 (decrease in CJ mRNA levels)
[11] = 24 h, decrease in CJ mRNA, A673 or K562 cells, 24 hours treatment, RT-qPCR, read-out: MYB CJ IC50
[12] = RT-qPCR panel, canonical junction mRNA, compound concentration having 50% response in CJ decrease, read-out: MYB IC50 (decrease in CJ mRNA levels)

SMILES | Papp at 2 h, 1 μM [1] | efflux ratio at 2 h, 1 μM [1] | IC50 (HTT [2]; Homo sapiens, K562, 24 h) | IC50 (Target C [3]; Homo sapiens, K562, 24 h) | IC50 (MYB [4]; Homo sapiens, K562, 24 h) | IC50 (HTT [2]; 24 hours) | IC50 (Target C [3]; 24 hours) | IC50 (MYB [4]; 24 hours) | IC50 (SMN2) | IC50 (HTT [5]; [8]) | AC50 (HTT [5]; [9]) | IC50 (HTT [5]; [10]) | IC50 (Target C [6]) | IC50 (MYB [7]; [11]) | AC50 (MYB [7]; [9]) | IC50 (MYB [7]; [12])
CN(c1ccc(-c2ccc(-c3cnn(C)c3)c3cn[nH]c23)nn1)[C@@H]1C[C@H]2CC[C@@H](C1)N2 [Compound 386, (exo)-N-methyl-N-{6-[4-(1-methylpyrazol-4-yl)-1H-indazol-7-yl]pyridazin-3-yl}-8-azabicyclo[3.2.1]octan-3-amine] | < 2 ×10⁻⁶ cm/s | > 5 | < 0.1 µM | < 0.1 µM | < 0.1 µM |  |  |  |  |  |  |  |  |  |  | 
CN(c1ccc(-c2cc(F)c(-c3cn[nH]c3)c3cn[nH]c23)nn1)[C@@H]1C[C@H]2CC[C@@H](C1)N2 [Compound 147] | < 2 ×10⁻⁶ cm/s | > 5 |  |  |  | < 0.1 µM | < 0.1 µM | < 0.1 µM |  |  |  |  |  |  |  | 
COc1cc(-c2ccc(-c3ccc(N(C)[C@@H]4C[C@H]5CC[C@@H](C4)N5)nn3)c3[nH]ncc23)ccn1 [Compound 385, (exo)-N-{6-[4-(2-methoxypyridin-4-yl)-1H-indazol-7-yl]pyridazin-3-yl}-N-methyl-8-azabicyclo[3.2.1]octan-3-amine] | < 2 ×10⁻⁶ cm/s | > 5 |  |  |  |  |  |  |  |  |  |  |  |  |  | 
CC1(C)CC(Nc2ccc(-c3ccc(-c4cn[nH]c4)c4cn[nH]c34)nn2)CC(C)(C)N1 [Compound 275] |  |  | 0.1 to 1 µM | < 0.1 µM | 0.1 to 1 µM |  |  |  | 0.1 to 1 µM | 0.1 to 1 µM | 1 to 10 µM | 0.1 to 1 µM | 1 to 10 µM | 0.1 to 1 µM | 1 to 10 µM | 0.1 to 1 µM
CN(c1ccc(-c2ccc(-c3ccn(C)c(=O)c3)c3scnc23)nn1)C1CC(C)(C)NC(C)(C)C1 [Compound 174] |  |  | 0.1 to 1 µM | > 10 µM | 1 to 10 µM |  |  |  | 0.1 to 1 µM | 1 to 10 µM | 1 to 10 µM | 1 to 10 µM | > 10 µM | 1 to 10 µM | 1 to 10 µM | 1 to 10 µM
c1cnn(-c2ccc(-c3ccc(N[C@@H]4C[C@H]5CC[C@@H](C4)N5)nn3)c3[nH]ncc23)c1 [Compound 278] |  |  | < 0.1 µM | < 0.1 µM | 0.1 to 1 µM |  |  |  | < 0.1 µM |  | 0.1 to 1 µM | < 0.1 µM | 0.1 to 1 µM | 0.1 to 1 µM | 0.1 to 1 µM | 0.1 to 1 µM
Cn1cc(-c2ccc(-c3ccc(N[C@@H]4C[C@H]5CC[C@@H](C4)N5)nn3)c3[nH]ncc23)nn1 [Compound 324, (1R,3s,5S)-N-(6-(4-(1-methyl-1H-1,2,3-triazol-4-yl)-1H-indazol-7-yl)pyridazin-3-yl)-8-azabicyclo[3.2.1]octan-3-amine] |  |  | 1 to 10 µM | 1 to 10 µM | 1 to 10 µM |  |  |  | 0.1 to 1 µM | 1 to 10 µM | 1 to 10 µM | 1 to 10 µM | > 10 µM | 1 to 10 µM | 1 to 10 µM | 1 to 10 µM
CN(c1ccc(-c2cc(F)c(-c3cnn(C)c3)c3cn[nH]c23)nn1)C1CC(C)(C)NC(C)(C)C1 [Compound 320, 6-[5-fluoro-4-(1-methylpyrazol-4-yl)-1H-indazol-7-yl]-N-methyl-N-(2,2,6,6-tetramethylpiperidin-4-yl)pyridazin-3-amine] |  |  | 0.1 to 1 µM |  | 0.1 to 1 µM |  | 0.1 to 1 µM |  | < 0.1 µM | 0.1 to 1 µM | 0.1 to 1 µM | 0.1 to 1 µM | 1 to 10 µM | 0.1 to 1 µM |  | 0.1 to 1 µM
c1nc2c(-c3cn[nH]c3)ccc(-c3cnc(N[C@@H]4C[C@H]5CC[C@@H](C4)N5)nn3)c2s1 [Compound 422] |  |  | 0.1 to 1 µM | 0.1 to 1 µM | 0.1 to 1 µM |  |  |  | 0.1 to 1 µM |  | 0.1 to 1 µM | < 0.1 µM | 0.1 to 1 µM | 0.1 to 1 µM | 1 to 10 µM | 0.1 to 1 µM
